Organism: Rattus norvegicus
Assay: DrugMatrix - Regimen: Daily Repeat
Type: toxicity, organism-based, Sprague-Dawley
Design: regimen Daily Repeat, gender Male, age 6-8 weeks
Details: in vivo, iv, vehicle 100 % SALINE; for ABSOLUTE BASOPHIL / ABSOLUTE EOSINOPHIL / ABSOLUTE LYMPHOCYTE / ABSOLUTE MONOCYTE / ABSOLUTE SEGMENTED NEUTROPHIL / BASOPHIL / EOSINOPHIL / ERYTHROCYTE COUNT / HEMATOCRIT / HEMOGLOBIN / LEUKOCYTE COUNT / LYMPHOCYTE / MEAN CORPUSCULAR HEMOGLOBIN / MEAN CORPUSCULAR HEMOGLOBIN CONCENTRATION / MEAN CORPUSCULAR VOLUME / MONOCYTE / NEUTROPHIL / NUCLEATED RED BLOOD CELLS / PLATELET COUNT: tissue Blood; for ALANINE AMINOTRANSFERASE / ALBUMIN / ALKALINE PHOSPHATASE / ASPARTATE AMINOTRANSFERASE / BLOOD UREA NITROGEN / CARBON DIOXIDE / CHLORIDE / CHOLESTEROL / CREATINE PHOSPHOKINASE / CREATININE / GLUCOSE / LACTATE DEHYDROGENASE / LIPASE / PHOSPHORUS / POTASSIUM / SODIUM / TOTAL BILIRUBIN / TOTAL PROTEIN / URIC ACID: tissue Plasma
[1] = 27 mg/kg, 72 h, dose level High, time 3 day
[2] = 27 mg/kg, 120 h, dose level High, time 5 day
[3] = […], 72 h, dose 2.7 mg/Kg, dose level Low, time 3 day
[4] = […], 120 h, dose 2.7 mg/Kg, dose level Low, time 5 day

COC(=O)CCc1ccc(OCC(O)CNC(C)C)cc1 (configuration not stated) [ESMOLOL]
ABSOLUTE BASOPHIL [1]: 0 CELLS/uL | ABSOLUTE EOSINOPHIL [1]: 31.33 CELLS/uL | ABSOLUTE LYMPHOCYTE [1]: 10926.67 CELLS/uL | ABSOLUTE MONOCYTE [1]: 68.67 CELLS/uL | ABSOLUTE SEGMENTED NEUTROPHIL [1]: 673.33 CELLS/uL | BASOPHIL [1]: 0% | EOSINOPHIL [1]: 0.33% | ERYTHROCYTE COUNT [1]: 5.92 x10E6/uL | HEMATOCRIT [1]: 37.53% | HEMOGLOBIN [1]: 14.47 G/DL | LEUKOCYTE COUNT [1]: 11.7 x10E3/uL | LYMPHOCYTE [1]: 92.67% | MEAN CORPUSCULAR HEMOGLOBIN [1]: 24.37 pg | MEAN CORPUSCULAR HEMOGLOBIN CONCENTRATION [1]: 38.63 G/DL | MEAN CORPUSCULAR VOLUME [1]: 63.03 fL | MONOCYTE [1]: 0.67% | NEUTROPHIL [1]: 6.33% | NUCLEATED RED BLOOD CELLS [1]: 0 /100WBC | PLATELET COUNT [1]: 1320 x10E3/uL | ALANINE AMINOTRANSFERASE [1]: 71.33 u/L | ALBUMIN [1]: 4.1 G/DL | ALKALINE PHOSPHATASE [1]: 456.33 u/L | ASPARTATE AMINOTRANSFERASE [1]: 161 u/L | BLOOD UREA NITROGEN [1]: 16.67 mg/dL | CARBON DIOXIDE [1]: 28.67 mmol/L | CHLORIDE [1]: 100.33 MEQ/L | CHOLESTEROL [1]: 75.67 mg/dL | CREATINE PHOSPHOKINASE [1]: 1751 u/L | CREATININE [1]: 0.23 mg/dL | GLUCOSE [1]: 225 mg/dL | LACTATE DEHYDROGENASE [1]: 862 u/L | LIPASE [1]: 12.33 u/L | PHOSPHORUS [1]: 14.17 mg/dL | POTASSIUM [1]: 8.56 MEQ/L | SODIUM [1]: 142.57 MEQ/L | TOTAL BILIRUBIN [1]: 0.4 mg/dL | TOTAL PROTEIN [1]: 5.8 G/DL | URIC ACID [1]: 4.13 mg/dL | ABSOLUTE BASOPHIL [2]: 0 CELLS/uL | ABSOLUTE EOSINOPHIL [2]: 0 CELLS/uL | ABSOLUTE LYMPHOCYTE [2]: 16580.67 CELLS/uL | ABSOLUTE MONOCYTE [2]: 300 CELLS/uL | ABSOLUTE SEGMENTED NEUTROPHIL [2]: 1652.67 CELLS/uL | BASOPHIL [2]: 0% | EOSINOPHIL [2]: 0% | ERYTHROCYTE COUNT [2]: 5.69 x10E6/uL | HEMATOCRIT [2]: 36.33% | HEMOGLOBIN [2]: 14.23 G/DL | LEUKOCYTE COUNT [2]: 18.53 x10E3/uL | LYMPHOCYTE [2]: 89.33% | MEAN CORPUSCULAR HEMOGLOBIN [2]: 25 pg | MEAN CORPUSCULAR HEMOGLOBIN CONCENTRATION [2]: 39.2 G/DL | MEAN CORPUSCULAR VOLUME [2]: 63.8 fL | MONOCYTE [2]: 1.67% | NEUTROPHIL [2]: 9% | NUCLEATED RED BLOOD CELLS [2]: 0 /100WBC | PLATELET COUNT [2]: 1133.67 x10E3/uL | ALANINE AMINOTRANSFERASE [2]: 63.33 u/L | ALBUMIN [2]: 4.27 G/DL | ALKALINE PHOSPHATASE [2]: 363.67 u/L | ASPARTATE AMINOTRANSFERASE [2]: 126 u/L | BLOOD UREA NITROGEN [2]: 15.33 mg/dL | CARBON DIOXIDE [2]: 27.33 mmol/L | CHLORIDE [2]: 99.67 MEQ/L | CHOLESTEROL [2]: 70.33 mg/dL | CREATINE PHOSPHOKINASE [2]: 284 u/L | CREATININE [2]: 0.22 mg/dL | GLUCOSE [2]: 147.33 mg/dL | LACTATE DEHYDROGENASE [2]: 238.67 u/L | LIPASE [2]: 9.33 u/L | PHOSPHORUS [2]: 11 mg/dL | POTASSIUM [2]: 6.94 MEQ/L | SODIUM [2]: 142.83 MEQ/L | TOTAL BILIRUBIN [2]: 0.17 mg/dL | TOTAL PROTEIN [2]: 6.3 G/DL | URIC ACID [2]: 1.47 mg/dL | ABSOLUTE BASOPHIL [3]: 0 CELLS/uL | ABSOLUTE EOSINOPHIL [3]: 0 CELLS/uL | ABSOLUTE LYMPHOCYTE [3]: 13243.33 CELLS/uL | ABSOLUTE MONOCYTE [3]: 97.67 CELLS/uL | ABSOLUTE SEGMENTED NEUTROPHIL [3]: 1325.67 CELLS/uL | BASOPHIL [3]: 0% | EOSINOPHIL [3]: 0% | ERYTHROCYTE COUNT [3]: 5.56 x10E6/uL | HEMATOCRIT [3]: 35.9% | HEMOGLOBIN [3]: 14.23 G/DL | LEUKOCYTE COUNT [3]: 14.67 x10E3/uL | LYMPHOCYTE [3]: 90.33% | MEAN CORPUSCULAR HEMOGLOBIN [3]: 25.77 pg | MEAN CORPUSCULAR HEMOGLOBIN CONCENTRATION [3]: 39.73 G/DL | MEAN CORPUSCULAR VOLUME [3]: 64.73 fL | MONOCYTE [3]: 0.67% | NEUTROPHIL [3]: 9% | NUCLEATED RED BLOOD CELLS [3]: 0 /100WBC | PLATELET COUNT [3]: 1093.67 x10E3/uL | ALANINE AMINOTRANSFERASE [3]: 50 u/L | ALBUMIN [3]: 4.43 G/DL | ALKALINE PHOSPHATASE [3]: 440 u/L | ASPARTATE AMINOTRANSFERASE [3]: 82 u/L | BLOOD UREA NITROGEN [3]: 17.33 mg/dL | CARBON DIOXIDE [3]: 28.67 mmol/L | CHLORIDE [3]: 100.33 MEQ/L | CHOLESTEROL [3]: 69.33 mg/dL | CREATINE PHOSPHOKINASE [3]: 423.67 u/L | CREATININE [3]: 0.22 mg/dL | GLUCOSE [3]: 193 mg/dL | LACTATE DEHYDROGENASE [3]: 155 u/L | LIPASE [3]: 9 u/L | PHOSPHORUS [3]: 12.67 mg/dL | POTASSIUM [3]: 7.24 MEQ/L | SODIUM [3]: 143.23 MEQ/L | TOTAL BILIRUBIN [3]: 0.23 mg/dL | TOTAL PROTEIN [3]: 5.97 G/DL | URIC ACID [3]: 2.6 mg/dL | ABSOLUTE BASOPHIL [4]: 0 CELLS/uL | ABSOLUTE EOSINOPHIL [4]: 0 CELLS/uL | ABSOLUTE LYMPHOCYTE [4]: 9825 CELLS/uL | ABSOLUTE MONOCYTE [4]: 143 CELLS/uL | ABSOLUTE SEGMENTED NEUTROPHIL [4]: 698.67 CELLS/uL | BASOPHIL [4]: 0% | EOSINOPHIL [4]: 0% | ERYTHROCYTE COUNT [4]: 6.36 x10E6/uL | HEMATOCRIT [4]: 40.2% | HEMOGLOBIN [4]: 15.63 G/DL | LEUKOCYTE COUNT [4]: 10.67 x10E3/uL | LYMPHOCYTE [4]: 92% | MEAN CORPUSCULAR HEMOGLOBIN [4]: 24.57 pg | MEAN CORPUSCULAR HEMOGLOBIN CONCENTRATION [4]: 38.87 G/DL | MEAN CORPUSCULAR VOLUME [4]: 63.2 fL | MONOCYTE [4]: 1.33% | NEUTROPHIL [4]: 6.67% | NUCLEATED RED BLOOD CELLS [4]: 0.33 /100WBC | PLATELET COUNT [4]: 1330 x10E3/uL | ALANINE AMINOTRANSFERASE [4]: 35.67 u/L | ALBUMIN [4]: 4.67 G/DL | ALKALINE PHOSPHATASE [4]: 337 u/L | ASPARTATE AMINOTRANSFERASE [4]: 68.67 u/L | BLOOD UREA NITROGEN [4]: 21.67 mg/dL | CARBON DIOXIDE [4]: 29.67 mmol/L | CHLORIDE [4]: 103 MEQ/L | CHOLESTEROL [4]: 101 mg/dL | CREATINE PHOSPHOKINASE [4]: 276 u/L | CREATININE [4]: 0.21 mg/dL | GLUCOSE [4]: 155 mg/dL | LACTATE DEHYDROGENASE [4]: 214.33 u/L | LIPASE [4]: 10 u/L | PHOSPHORUS [4]: 12.37 mg/dL | POTASSIUM [4]: 6.64 MEQ/L | SODIUM [4]: 148.6 MEQ/L | TOTAL BILIRUBIN [4]: 0.23 mg/dL | TOTAL PROTEIN [4]: 6.97 G/DL | URIC ACID [4]: 2 mg/dL

From ChEMBL document CHEMBL3885881, “DrugMatrix”
